{"source": "patent US9174991B2", "about": "“Crystalline form of pemetrexed disodium” (Azad Pharmaceutical Ingredients AG, priority 2009, dated 2015)", "key": {"[1]": {"details": "starting material, before storage", "description": "HPLC analysis was done on an Agilent 1100 system equipped with DAD detector using a Zorbax SB-Phenyl column (150×4.6 mm, 3 μm). Measurements were done at 230 nm wavelengths at 25° C. using a flow of 1.0 mL/min and 8 min post-run time. As mobile phase water containing 0.03% TFA and acetonitrile containing 0.025% TFA were used, solvents were HPLC grade. Sample preparation: 10 mg sample in 25 mL water:ACN=1:1, 5 uL injection. Retention time Pemetrexed Disodium: 10.3 min.\nPXRD: Routine PXRD measurements were carried out on a Bruker AXS D8Advance diffractometer equipped with CuKα source with CuKβ filter and a VANTEC detector (Ser. No.: 202964). Measurement parameters: 3° 2theta to 39.9° 2theta, step time: 2s, step size: 0.022°, T=25° C., X-ray generator: 35 kV/40 mA."}, "[2]": {"assay": "not given", "remark": "listed apart in the source"}, "[3]": {"details": "70° C., 5 mbar", "description": "To investigate the stability of the different forms of Pemetrexed Disodium a stability test concerning storage at different relative humidity, storage in the presence of light and stability under drying conditions was carried out.\nFour samples were stored at 70° 5 mbar in laboratory vacuum oven. IPC were taken after 2 d, 9 d\nHPLC analysis was done on an Agilent 1100 system equipped with DAD detector using a Zorbax SB-Phenyl column (150×4.6 mm, 3 μm). Measurements were done at 230 nm wavelengths at 25° C. using a flow of 1.0 mL/min and 8 min post-run time. […] Sample preparation: 10 mg sample in 25 mL water:ACN=1:1, 5 uL injection."}, "[4]": {"details": "daylight, text says after 16 d, listed as Pemetrexed Disodium Form IV"}, "[5]": {"details": "5% to 12% relative humidity, dark, air, 2 d, measured 11.7% (Form A 5.8%), 23° C."}, "[6]": {"details": "5% to 12% relative humidity, dark, air, 5 d, measured 9.5% (Form A 5.3%), 24° C."}, "[7]": {"details": "5% to 12% relative humidity, dark, air, 9 d, measured 9% (Form A 6%), 24° C."}, "[8]": {"details": "5% to 12% relative humidity, dark, air, 16 d, measured 8.5% (Form A 5.8%), 24° C."}, "[9]": {"details": "27% to 33% relative humidity, dark, air, 2 d, measured 29.8% (Form A 28%), 23° C."}, "[10]": {"details": "27% to 33% relative humidity, dark, air, 5 d, measured 29% (Form A 27%), 24° C."}, "[11]": {"details": "27% to 33% relative humidity, dark, air, 9 d, measured 31% (Form A 30%), 24° C."}, "[12]": {"details": "27% to 33% relative humidity, dark, air, 16 d, measured 30.4% (Form A 28.7%), 24° C."}, "[13]": {"details": "39% to 50% relative humidity, dark, air, 2 d, measured 41.1% (Form A 39%), 23° C."}, "[14]": {"details": "39% to 50% relative humidity, dark, air, 5 d, measured 42.8% (Form A 38.6%), 24° C."}, "[15]": {"details": "39% to 50% relative humidity, dark, air, 9 d, measured 48% (Form A 47%), 24° C."}, "[16]": {"details": "60% to 70% relative humidity, dark, air, 5 d, measured 63% (Form A 57%), 24° C."}, "[17]": {"details": "60% to 70% relative humidity, dark, air, 9 d, measured 69% (Form A 68%), 24° C."}, "[18]": {"details": "60% to 70% relative humidity, dark, air, 16 d, measured 66.9% (Form A 67.2%), 24° C."}}, "note": "Structures can show the parent of a compound that is named as a salt. Where two headings read alike, the source gives them in different places.", "data": [{"molecule": "Nc1nc(O)c2c(CCc3ccc(C(=O)N[C@@H](CCC(=O)O)C(=O)O)cc3)c[nH]c2n1", "note": "[Form IV, disodium N-[4-[2-(2-amino-4,7-dihydro-4-oxo-3H-pyrrolo[2,3-d]-pyrimidin-5-yl)ethyl]benzoyl]-L-glutamic acid salt]", "values": [{"measurement": "HPLC-purity (10.5 min)", "setting": "[1]", "result": 99.85, "unit": "%"}, {"measurement": "PXRD", "setting": "[1]", "result": "Form IV"}, {"measurement": "HPLC-purity", "setting": "daylight study, Start", "result": 99.83, "unit": "%"}, {"measurement": "change in HPLC purity in the presence of light (in words)", "setting": "[4]", "result": "slight decrease"}, {"measurement": "change in color in the presence of light (in words)", "setting": "[4]", "result": "without significant change"}, {"measurement": "HPLC-purity", "setting": "double PE plastic bags, daylight, 20° C. to 25° C., 15 d", "result": 99.44, "unit": "%"}, {"measurement": "change in water content (in words)", "setting": "[2]; 5% to 12% rel. humidity (for Form A and Form IV: 7% to 12%), up to 16 d, listed as Pemetrexed Disodium Form IV", "result": "does not show significant change"}, {"measurement": "H2O (KFT)", "setting": "[2]; [5]", "result": 1.0, "unit": "%"}, {"measurement": "HPLC-purity (10.5 min)", "setting": "[2]; [5]", "result": 99.66, "unit": "%"}, {"measurement": "PXRD", "setting": "[2]; [5]", "result": "Form IV"}, {"measurement": "HPLC-purity (10.5 min)", "setting": "[2]; [6]", "result": 99.60, "unit": "%"}, {"measurement": "PXRD", "setting": "[2]; [6]", "result": "Form IV"}, {"measurement": "HPLC-purity (10.5 min)", "setting": "[2]; [7]", "result": 99.83, "unit": "%"}, {"measurement": "PXRD", "setting": "[2]; [7]", "result": "Form IV"}, {"measurement": "HPLC-purity", "setting": "[2]; [8]", "result": 99.88, "unit": "%"}, {"measurement": "PXRD", "setting": "[2]; [8]", "result": "Form IV"}, {"measurement": "change in water content (in words)", "setting": "[2]; 27% to 33% rel. humidity, up to 16 d, listed as Pemetrexed Disodium Form IV", "result": "does not show significant change"}, {"measurement": "HPLC-purity", "setting": "[2]; [9]", "result": 99.81, "unit": "%"}, {"measurement": "PXRD", "setting": "[2]; [9]", "result": "Form IV"}, {"measurement": "HPLC-purity", "setting": "[2]; [10]", "result": 99.73, "unit": "%"}, {"measurement": "PXRD", "setting": "[2]; [10]", "result": "Form IV"}, {"measurement": "HPLC-purity", "setting": "[2]; [11]", "result": 99.82, "unit": "%"}, {"measurement": "PXRD", "setting": "[2]; [11]", "result": "Form IV"}, {"measurement": "HPLC-purity", "setting": "[2]; [12]", "result": 99.86, "unit": "%"}, {"measurement": "PXRD", "setting": "[2]; [12]", "result": "Form D"}, {"measurement": "HPLC-purity", "setting": "[2]; [13]", "result": 99.84, "unit": "%"}, {"measurement": "PXRD", "setting": "[2]; [13]", "result": "Form IV"}, {"measurement": "HPLC-purity", "setting": "[2]; [14]", "result": 99.78, "unit": "%"}, {"measurement": "PXRD", "setting": "[2]; [14]", "result": "Form IV"}, {"measurement": "HPLC-purity", "setting": "[2]; [15]", "result": 99.76, "unit": "%"}, {"measurement": "PXRD", "setting": "[2]; [15]", "result": "Form IV"}, {"measurement": "PXRD", "setting": "[2]; 39% to 50% relative humidity, dark, air, 9 d, measured 48% (Form A 47%), 24° C., listed as Pemetrexed Disodium Form IV", "result": "without significant change"}, {"measurement": "HPLC-purity", "setting": "[2]; 39% to 50% relative humidity, dark, air, 16 d, measured 47.3% (Form A 46.4%), 24° C.", "result": 99.81, "unit": "%"}, {"measurement": "PXRD", "setting": "[2]; 39% to 50% relative humidity, dark, air, 16 d, measured 47.3% (Form A 46.4%), 24° C., listed as Pemetrexed Disodium Form IV", "result": "traces of Pemetrexed Disodium Heptahydrate"}, {"measurement": "change in water content (in words)", "setting": "[2]; 40% to 50% rel. humidity, up to 16 d, listed as Pemetrexed Disodium Form IV", "result": "slight increase"}, {"measurement": "change in water content (in words)", "setting": "[2]; 60% to 70% rel. humidity, after 2 d", "result": "significant increase"}, {"measurement": "HPLC-purity", "setting": "[2]; 60% to 70% relative humidity, dark, air, 2 d, measured 61%, 22° C. (Form A 54%, 23° C)", "result": 99.83, "unit": "%"}, {"measurement": "PXRD", "setting": "[2]; 60% to 70% relative humidity, dark, air, 2 d, measured 61%, 22° C. (Form A 54%, 23° C), listed as Pemetrexed Disodium Form IV", "result": "partial transformation to Pemetrexed Disodium Heptahydrate"}, {"measurement": "HPLC-purity", "setting": "[2]; [16]", "result": 99.75, "unit": "%"}, {"measurement": "PXRD", "setting": "[2]; [16]", "result": "Heptahydrate"}, {"measurement": "PXRD", "setting": "[2]; 60% to 70% relative humidity, dark, air, 5 d, measured 63% (Form A 57%), 24° C., listed as Pemetrexed Disodium Form IV", "result": "Transformation to Pemetrexed Disodium Heptahydrate is complete"}, {"measurement": "HPLC-purity", "setting": "[2]; [17]", "result": 99.85, "unit": "%"}, {"measurement": "PXRD", "setting": "[2]; [17]", "result": "Heptahydrate"}, {"measurement": "HPLC-purity", "setting": "[2]; [18]", "result": 99.81, "unit": "%"}, {"measurement": "PXRD", "setting": "[2]; [18]", "result": "Heptahydrate"}, {"measurement": "change in HPLC purity in any of the samples (in words)", "setting": "[2]; all relative humidities tested (5% to 70%), up to 16 d", "result": "No significant change"}, {"measurement": "HPLC-purity (10.5 min)", "setting": "[3]; 2 d", "result": 99.70, "unit": "%"}, {"measurement": "PXRD", "setting": "[3]; 2 d", "result": "Form IV"}, {"measurement": "HPLC-purity (10.5 min)", "setting": "[3]; 9 d", "result": 99.80, "unit": "%"}, {"measurement": "change in water content upon vacuum drying (in words)", "setting": "[3]; after 9 d", "result": "no significant change"}, {"measurement": "change in HPLC-purity upon vacuum drying (in words)", "setting": "[3]; up to 9 d, listed as Pemetrexed Disodium Form IV", "result": "no significant change"}]}]}
